Molecular target: T1, Histone-lysine N-methyltransferase EHMT2 (Homo sapiens, UniProt Q96KQ7)
T1 sequence (Q96KQ7 whole entry): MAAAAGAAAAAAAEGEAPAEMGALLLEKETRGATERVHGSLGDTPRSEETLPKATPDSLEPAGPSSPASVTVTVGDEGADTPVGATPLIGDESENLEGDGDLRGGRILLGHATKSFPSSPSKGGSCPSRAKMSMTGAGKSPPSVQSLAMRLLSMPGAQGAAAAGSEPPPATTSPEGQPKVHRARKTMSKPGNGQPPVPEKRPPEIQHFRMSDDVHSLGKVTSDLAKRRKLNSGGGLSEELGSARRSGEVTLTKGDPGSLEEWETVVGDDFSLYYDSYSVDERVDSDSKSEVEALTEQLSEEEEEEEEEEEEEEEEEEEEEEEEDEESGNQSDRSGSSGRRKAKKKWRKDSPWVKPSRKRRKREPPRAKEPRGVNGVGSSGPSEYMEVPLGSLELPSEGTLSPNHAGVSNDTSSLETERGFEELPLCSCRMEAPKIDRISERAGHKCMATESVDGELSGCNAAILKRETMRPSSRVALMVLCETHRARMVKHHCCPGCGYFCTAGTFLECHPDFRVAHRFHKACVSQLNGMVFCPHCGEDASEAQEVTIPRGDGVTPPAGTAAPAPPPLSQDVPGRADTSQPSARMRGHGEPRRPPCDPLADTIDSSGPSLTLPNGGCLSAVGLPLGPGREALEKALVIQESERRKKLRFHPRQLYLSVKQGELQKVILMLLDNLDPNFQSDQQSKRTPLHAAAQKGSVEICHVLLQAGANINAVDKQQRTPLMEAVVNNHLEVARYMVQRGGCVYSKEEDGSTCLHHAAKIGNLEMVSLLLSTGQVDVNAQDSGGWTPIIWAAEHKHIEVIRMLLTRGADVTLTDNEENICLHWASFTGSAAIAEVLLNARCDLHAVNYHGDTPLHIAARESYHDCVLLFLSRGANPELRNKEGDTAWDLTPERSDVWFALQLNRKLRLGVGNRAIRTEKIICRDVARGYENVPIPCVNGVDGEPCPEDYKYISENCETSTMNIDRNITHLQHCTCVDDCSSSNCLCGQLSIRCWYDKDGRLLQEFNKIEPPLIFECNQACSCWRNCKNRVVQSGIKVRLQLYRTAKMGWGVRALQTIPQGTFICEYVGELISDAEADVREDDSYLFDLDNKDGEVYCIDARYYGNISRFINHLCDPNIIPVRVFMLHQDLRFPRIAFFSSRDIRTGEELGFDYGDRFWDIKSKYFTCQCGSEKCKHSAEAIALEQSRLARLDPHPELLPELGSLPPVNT
Assay: Enzymatic Activity Assay: For the assay, the following buffer was used to set up reactions: 50 mM Tris-HCl pH9, 50 mM NaCl, 0.01% Tween-20 and 1 mM DTT (added fresh prior to starting the reactions). The assay is set up by adding a final concentration of 0.15 nM G9a, 15 uM S-adenosyl-methionine and 100 nM biotinylated histone 3 peptide (1-21). The reaction is incubated at rt for 1 hour and subsequently quenched with the acceptor beads (anti-H3k9me2 AlphaLISA acceptor beads, Perkin Elmer #AL117) at a final concentration of 20 ug/mL. The acceptor beads are incubated for 1 hour. After 1 hour, the donor beads are added at a final concentration of 20 ug/mL (Alpha Streptavidin donor beads, PerkinElmer #6760002). Donor beads are incubated for 0.5 hours. Both donor and acceptor beads are resuspended in AlphaLISA 5X Epigenetics Buffer 1 Kit (PerkinElmer #AL008) prior to addition to the reaction. All manipulations and incubations with the donor and acceptor beads are done in subdued light. Signal is detected in an EnVision plate reader in Alpha mode.

IC50 [nM]	Structure (SMILES)
1740	COc1cc2nc3c(c(NCC4CN(c5ccccc5F)C4)c2cc1OC)CCC3
53.7	COc1cc2nc3c(c(NC4CC(C)(C)NC(C)(C)C4)c2cc1OC)CCC3
≥ 10000	COc1cc2nc3c(c(NC4CCN(C(C)C)CC4)c2cc1OC)CCCC3
617	COc1cc2nc3c(c(NC4CCN(C5CCOC5)CC4)c2cc1OC)CCC3 (centres undefined)
